In EP0587396A1, “Use of hypoxoside derivatives for the treatment of viral infections” (VIROSTAT (NA) NV, priority 1992, dated 1994):
Like-named read-outs stand apart in the source and are kept apart here.

Key:
[1] = test system: human immunodeficiency virus type 1 (HIV-1); assay: Inhibition of HIV-1 proliferation in PHA-activated human PBL's (p24 core protein by Sandwich ELISA, HIV RNA by labelled DNA probe hybridization); assay type: cell-based; settings: for inhibition of p24 core protein production: 10 ng/mℓ
Protocol: Compounds I - XXVIII were subjected to in vitro testing for inhibition of human immunodeficiency virus type 1 (HIV-1) proliferation as follows:
Human peripheral blood lymphocytes (PBL's) obtained by density gradient centrifugation of blood from healthy volunteers at a blood bank were pooled and used for the propagation of HIV-1 in vitro.
The PBL's were polyclonally activated with phytohaemagglutinin (PHA) and subjected to quality controls whereby their viability was tested with Trypan blue exclusion and the expression of activation antigens, CD4⁺ and CD25⁺ was measured by immunofluorescence. Prior to adding the test substance, the activated PBL's were exposed to a standardized titre of HIV-1 virus and after incubation for 60 minutes the cells were washed twice and plated into microtitre plates at a concentration of 2X10⁶ cells/well. The medium contained interleukin-2 and in control wells the virus produced between 50 and 100 ng/mℓ of p24 core protein on day 4. The test substance was added to these cultures either in water or dimethyl sulphoxide (DMSO) depending on solubility characteristics. The final DMSO concentration, when used, was always 1% v/v.
HIV replication was measured as the production of p24 core protein and the production of HIV RNA on days 2, 3 and 4, or on days 3, 4, 5 and 6. Core protein p24 was measured using 'Sandwich ELISA' technology using inter alia a monoclonal antibody against p24 core protein. The HIV RNA was measured using a specific labelled DNA probe against HIV RNA and the process of hybridization.
Results were expressed as percent inhibition of HIV-1 p24 core protein production or RNA production on days 3, 4 or 6.
In each test, cells were also exposed to HIV-1 and 3'-azido-3'-deoxythymidine (also known as Zidovudine or AZT) at 100, 10, 1 and 0.1 ng/mℓ. This was a positive control and compounds tested were compared to the inhibitory effect of 10 ng/mℓ AZT.
In all of the following Tables, percentage inhibition refers to inhibition of p24 core protein production and HIV RNA production relative to infected controls. Percentage AZT inhibition refers to inhibition caused by 10 ng/mℓ AZT at the end of the experiment, i.e. after 4 or 6 days.

CD4⁺ cells = settings: standard doses (250 mg/4 hours) and reduced doses (100 mg/4 hours) for 30 months; Fisch et al; cited from earlier work
[2] = Toxicity: lymphocyte proliferation assay with MTT in the HIV-1 infected PBL cultures; assay type: cell-based; settings: human, pbls
Protocol: Possible toxic effects of the test substances were measured by viability testing using Trypan blue or a proliferation assay using3-(4,5-dimethylthiazol-2-yl)-2,5-diphenyl-2H-tetrazolium bromide (MTT) on day 4 or day 6 after initiation of the experiment (Borenfreund et al: Toxicol. In Vitro, 1988, 2, 1-6).
The toxicity of the drug was expressed as a percentage inhibition of lymphocyte proliferation as measured with MTT and compared with controls receiving the virus but no drug.

Cc1cn([C@H]2C[C@H](N=[N+]=[N-])[C@@H](CO)O2)c(=O)[nH]c1=O [AZT, 3'-azido-3'-deoxythymidine, reference compound]
inhibition of p24 core protein production ([1]; positive control of Table 2 (6 days, standard titre)): 20% | inhibition of p24 core protein production ([1]; positive control of Table 4 (after 3 days)): 50% | inhibition of p24 core protein production ([1]; positive control of Table 5 (after 6 days)): 50% | inhibition of p24 core protein production ([1]; positive control of Table 6 (6 days, standard viral titre)): 20% | inhibition of p24 core protein production ([1]; positive control of Table 8 (3 days incubation)): 50% | inhibition of p24 core protein production ([1]; positive control of Table 12 (3 days incubation)): 50% | inhibition at 0.01 µg/mL ([1]; Human immunodeficiency virus 1, 72 h, read-out: inhibition of HIV-RNA production, 10 ng/mℓ, positive control of Table 4 (after 3 days)): 46% | inhibition at 0.01 µg/mL ([1]; Human immunodeficiency virus 1, 72 h, read-out: inhibition of HIV-RNA production, 10 ng/mℓ, positive control of Table 8 (3 days incubation)): 46% | inhibition at 0.01 µg/mL ([1]; Human immunodeficiency virus 1, 72 h, read-out: inhibition of HIV-RNA production, 10 ng/mℓ, positive control of Table 12 (3 days incubation)): 46% | inhibition at 0.01 µg/mL ([1]; Human immunodeficiency virus 1, 96 h, read-out: inhibition of HIV RNA production, 10 ng/mℓ, positive control of the crude extract test (4 days)): 96% | inhibition at 0.01 µg/mL ([1]; Human immunodeficiency virus 1, 96 h, read-out: inhibition of HIV-RNA production, 10 ng/mℓ, day 4, positive control of Table 13): 100% | inhibition at 0.01 µg/mL ([1]; Human immunodeficiency virus 1, 96 h, read-out: inhibition of HIV-RNA production, 10 ng/mℓ, positive control of Table 11 (4 days)): 97% | inhibition at 0.01 µg/mL ([1]; Human immunodeficiency virus 1, 144 h, read-out: inhibition of HIV-RNA production, 10 ng/mℓ, day 6, positive control of Table 13): 100% | inhibition at 0.01 µg/mL ([1]; Human immunodeficiency virus 1, 144 h, read-out: inhibition of HIV-RNA production, 10 ng/mℓ, positive control of Table 2 (6 days, standard titre)): 68% | inhibition at 0.01 µg/mL ([1]; Human immunodeficiency virus 1, 144 h, read-out: inhibition of HIV-RNA production, 10 ng/mℓ, positive control of Table 5 (after 6 days)): 46% | inhibition at 0.01 µg/mL ([1]; Human immunodeficiency virus 1, 144 h, read-out: inhibition of HIV-RNA production, 10 ng/mℓ, positive control of Table 6 (6 days, standard viral titre)): 68% | inhibition at 0.01 µg/mL ([1]; Human immunodeficiency virus 1, 144 h, read-out: inhibition of HIV-RNA production, 10 ng/mℓ, positive control of Table 8 continued (6 days incubation)): 92% | inhibition at 0.01 µg/mL ([1]; Human immunodeficiency virus 1, 144 h, read-out: inhibition of HIV-RNA production, 10 ng/mℓ, positive control of Table 9 (6 days)): 92% | inhibition at 0.01 µg/mL ([1]; Human immunodeficiency virus 1, 144 h, read-out: inhibition of HIV-RNA production, 10 ng/mℓ, positive control of Table 10 (6 days)): 92% | inhibition at 0.01 µg/mL ([1]; Human immunodeficiency virus 1, read-out: inhibition of HIV-RNA production, 10 ng/mℓ, positive control of Table 7 (ten-fold dilution of standard viral titre)): 99% | inhibition at 0.01 µg/mL ([1]; Human immunodeficiency virus 1, read-out: inhibition of HIV-RNA, 10 ng/mℓ, positive control of Table 3 (viral titre lowered ten-fold)): 99% | transient mean increase of CD4⁺ cells (CD4⁺ cells): 25 cells/mm³ of blood

OC[C@H]1O[C@@H](Oc2ccc(C#CC/C=C/c3ccc(O[C@@H]4O[C@H](CO)[C@@H](O)[C@H](O)[C@H]4O)c(O)c3)cc2O)[C@H](O)[C@@H](O)[C@@H]1O [Compound V, E-1,5-bis(3'-hydroxy-4'-O-β-D-glucopyranosylphenyl)pent-4-en-1-yne]
% inhibition:p24 core protein ([1]; 6.25 µg/mℓ, dissolved in water, after 6 days, standard titre of HIV-1): 5% | % inhibition:p24 core protein ([1]; 12.5 µg/mℓ, dissolved in water, after 6 days, standard titre of HIV-1): 5% | % inhibition:p24 core protein ([1]; 25 µg/mℓ, dissolved in water, after 6 days, standard titre of HIV-1): 9% | % inhibition:p24 core protein ([1]; 25 µg/ℓ, viral titre lowered ten-fold): 90% | inhibition at 6.25 µg/mL ([1]; Human immunodeficiency virus 1, 144 h, read-out: % inhibition: HIV-RNA, 6.25 µg/mℓ, dissolved in water, after 6 days, standard titre of HIV-1): 42% | inhibition at 12.5 µg/mL ([1]; Human immunodeficiency virus 1, 144 h, read-out: % inhibition: HIV-RNA, 12.5 µg/mℓ, dissolved in water, after 6 days, standard titre of HIV-1): 65% | inhibition at 25 µg/mL ([1]; Human immunodeficiency virus 1, 144 h, read-out: % inhibition: HIV-RNA, 25 µg/mℓ, dissolved in water, after 6 days, standard titre of HIV-1): 83% | inhibition at 50 µg/mL ([1]; Human immunodeficiency virus 1, 144 h, read-out: % inhibition: HIV-RNA, 50 µg/mℓ, dissolved in water, after 6 days, standard titre of HIV-1): 100% | inhibition at 0.00625 µg/mL ([1]; Human immunodeficiency virus 1, read-out: % inhibition:HIV-RNA, 6.25 µg/ℓ, viral titre lowered ten-fold): 0% | inhibition at 0.0125 µg/mL ([1]; Human immunodeficiency virus 1, read-out: % inhibition:HIV-RNA, 12.5 µg/ℓ, viral titre lowered ten-fold): 11% | inhibition at 0.025 µg/mL ([1]; Human immunodeficiency virus 1, read-out: % inhibition:HIV-RNA, 25 µg/ℓ, viral titre lowered ten-fold): 97% | inhibition at 0.05 µg/mL ([1]; Human immunodeficiency virus 1, read-out: % inhibition:HIV-RNA, 50 µg/ℓ, viral titre lowered ten-fold): 99% | viability ([2]; 6.25 µg/mℓ, dissolved in water, standard titre of HIV-1, read-out: Proliferation as a percentage of control value): 94% | viability ([2]; 6.25 µg/ℓ, viral titre lowered ten-fold, read-out: Proliferation as a percentage of control value): 94% | viability ([2]; 12.5 µg/mℓ, dissolved in water, standard titre of HIV-1, read-out: Proliferation as a percentage of control value): 94% | viability ([2]; 12.5 µg/ℓ, viral titre lowered ten-fold, read-out: Proliferation as a percentage of control value): 94% | viability ([2]; 25 µg/mℓ, dissolved in water, standard titre of HIV-1, read-out: Proliferation as a percentage of control value): 93% | viability ([2]; 25 µg/ℓ, viral titre lowered ten-fold, read-out: Proliferation as a percentage of control value): 93% | viability ([2]; 50 µg/mℓ, dissolved in water, standard titre of HIV-1, read-out: Proliferation as a percentage of control value): 82% | viability ([2]; 50 µg/ℓ, viral titre lowered ten-fold, read-out: Proliferation as a percentage of control value): 82%

O=S(=O)(O)Oc1ccc(C#CC/C=C/c2ccc(OS(=O)(=O)O)cc2)cc1 [Compound XVIII]
% inhibition:p24 core protein ([1]; 50 µg/mℓ, after 6 days): 79% | inhibition at 50 µg/mL ([1]; Human immunodeficiency virus 1, 144 h, read-out: % inhibition:HIV-RNA, 50 µg/mℓ, after 6 days): 87% | inhibition at 100 µg/mL ([1]; Human immunodeficiency virus 1, 144 h, read-out: % inhibition:HIV-RNA, 100 µg/mℓ, after 6 days): 100% | viability ([2]; 50 µg/mℓ, Table 10 (6 days), read-out: Proliferation as a percentage of control value): 63% | viability ([2]; 100 µg/mℓ, Table 10 (6 days), read-out: Proliferation as a percentage of control value): 50%
